In ChEMBL document CHEMBL3853350 (ACS Med Chem Lett, 2016):

Key:
[1] = target: Cytochrome P450 2C19 (Homo sapiens, UniProt P33261); test: Inhibition of CYP2C19 in human liver microsomes after 5 mins in presence of NADPH by LC-MS/MS analysis; assay type: ADME
[2] = target: T1, Cytochrome P450 2B6 (Homo sapiens, UniProt P20813); test: Inhibition of CYP2B6 in human liver microsomes after 5 mins in presence of NADPH by LC-MS/MS analysis; assay type: ADME
T1 sequence (P20813 whole entry): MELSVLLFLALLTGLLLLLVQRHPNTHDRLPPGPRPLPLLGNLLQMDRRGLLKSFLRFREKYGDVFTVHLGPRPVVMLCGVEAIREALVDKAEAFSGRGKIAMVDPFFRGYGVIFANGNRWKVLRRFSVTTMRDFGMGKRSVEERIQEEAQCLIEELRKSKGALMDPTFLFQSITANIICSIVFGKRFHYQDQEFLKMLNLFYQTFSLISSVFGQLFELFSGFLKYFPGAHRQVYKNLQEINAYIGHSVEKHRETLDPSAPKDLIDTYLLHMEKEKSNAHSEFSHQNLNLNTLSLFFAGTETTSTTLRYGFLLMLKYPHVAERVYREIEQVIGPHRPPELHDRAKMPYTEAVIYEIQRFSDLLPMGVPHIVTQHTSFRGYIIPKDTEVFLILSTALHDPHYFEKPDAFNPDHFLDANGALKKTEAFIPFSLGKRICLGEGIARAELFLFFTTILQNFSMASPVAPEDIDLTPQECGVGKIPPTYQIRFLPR

[3] = Clearance in Beagle dog plasma at 0.5 mg/kg, iv measured 24 hrs post dose by LC/MS/MS analysis; assay type: ADME, organism-based, Canis lupus familiaris
[4] = Fraction unbound in human plasma at 1 uM after 5 hrs by rapid equilibrium dialysis based LC-MS/MS analysis; assay type: ADME, cell-free
[5] = AUC (0 to infinity) in CD-1 mouse plasma at 5 mg/kg administered via oral gavage measured 24 hrs post dose by LC/MS/MS analysis; assay type: ADME, organism-based; parameters: dose 5 mg/kg, time infinity, route oral
[6] = Oral bioavailability in Beagle dog plasma at […] measured 24 hrs post dose by LC/MS/MS analysis; assay type: ADME, organism-based, Canis lupus familiaris
[7] = Oral bioavailability in Sprague-Dawley rat plasma at 5 mg/kg measured 24 hrs post dose by LC/MS/MS analysis; assay type: ADME, organism-based
[8] = test system: Salmonella typhimurium; test: Genotoxicity in Salmonella typhimurium by Ames test; assay type: toxicity, organism-based; conditions: salmonella enterica subsp. enterica serovar typhimurium
[9] = Half life in mouse hepatocytes at 1 uM by LC/MS analysis; assay type: ADME, cell-based, Hepatocyte
[10] = AUC (0 to infinity) in Sprague-Dawley rat plasma at 5 mg/kg administered via oral gavage measured 24 hrs post dose by LC/MS/MS analysis; assay type: ADME, organism-based; parameters: dose 5 mg/kg, time infinity, route oral
[11] = Fraction unbound in dog plasma at 1 uM after 5 hrs by rapid equilibrium dialysis based LC-MS/MS analysis; assay type: ADME, cell-free, Canis lupus familiaris
[12] = Half life in Beagle dog plasma at 0.5 mg/kg, iv by LC/MS/MS analysis; assay type: ADME, organism-based, Canis lupus familiaris
[13] = target: Voltage-gated inwardly rectifying potassium channel KCNH2 (Homo sapiens, UniProt Q12809); test: Inhibition of human ERG
[14] = target: T2, Cytochrome P450 2C8 (Homo sapiens, UniProt P10632); test: Inhibition of CYP2C8 in human liver microsomes after 5 mins in presence of NADPH by LC-MS/MS analysis; assay type: ADME
T2 sequence (P10632 whole entry): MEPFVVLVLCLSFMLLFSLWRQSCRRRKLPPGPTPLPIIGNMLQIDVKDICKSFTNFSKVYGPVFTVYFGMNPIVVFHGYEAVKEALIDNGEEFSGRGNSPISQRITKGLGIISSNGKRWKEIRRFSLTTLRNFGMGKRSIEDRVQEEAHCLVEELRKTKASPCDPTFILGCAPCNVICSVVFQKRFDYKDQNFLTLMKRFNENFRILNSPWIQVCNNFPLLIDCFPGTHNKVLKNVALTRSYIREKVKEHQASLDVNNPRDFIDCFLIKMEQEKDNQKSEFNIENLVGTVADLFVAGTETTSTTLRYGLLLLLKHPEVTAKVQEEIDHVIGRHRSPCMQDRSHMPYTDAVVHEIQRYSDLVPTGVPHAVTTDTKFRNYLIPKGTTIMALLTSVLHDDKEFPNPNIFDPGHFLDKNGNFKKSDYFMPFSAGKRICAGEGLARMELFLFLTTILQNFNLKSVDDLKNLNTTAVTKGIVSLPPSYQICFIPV

[15] = Clearance in CD-1 mouse plasma at 1 mg/kg, iv measured 24 hrs post dose by LC/MS/MS analysis; assay type: ADME, organism-based
[16] = target: Cytochrome P450 2C9 (Homo sapiens, UniProt P11712); test: Inhibition of CYP2C9 in human liver microsomes after 5 mins in presence of NADPH by LC-MS/MS analysis; assay type: ADME
[17] = Half life in CD-1 mouse plasma at 1 mg/kg, iv by LC/MS/MS analysis; assay type: ADME, organism-based
[18] = Oral bioavailability in cynomolgus monkey plasma at […] measured 24 hrs post dose by LC/MS/MS analysis; assay type: ADME, organism-based, Macaca fascicularis
[19] = target: Cytochrome P450 3A4 (Homo sapiens, UniProt P08684); test: Inhibition of CYP3A4 in human liver microsomes after 5 mins in presence of NADPH by LC-MS/MS analysis; assay type: ADME
[20] = Half life in Sprague-Dawley rat plasma at 1 mg/kg, iv by LC/MS/MS analysis; assay type: ADME, organism-based
[21] = Apparent permeability from apical to basolateral side in human Caco2 cells at 10 uM by lucifer yellow flux assay; assay type: ADME, cell-based; conditions: Caco-2
[22] = Fraction unbound in rat plasma at 1 uM after 5 hrs by rapid equilibrium dialysis based LC-MS/MS analysis; assay type: ADME, cell-free
[23] = Volume of distribution at steady state in Sprague-Dawley rat plasma at 1 mg/kg, iv measured 24 hrs post dose by LC/MS/MS analysis; assay type: ADME, organism-based; conditions: read-out: Vdss
[24] = Volume of distribution at steady state in Beagle dog plasma at 0.5 mg/kg, iv measured 24 hrs post dose by LC/MS/MS analysis; assay type: ADME, organism-based, Canis lupus familiaris; conditions: read-out: Vdss
[25] = target: Cytochrome P450 2D6 (Homo sapiens, UniProt P10635); test: Inhibition of CYP2D6 in human liver microsomes after 5 mins in presence of NADPH by LC-MS/MS analysis; assay type: ADME
[26] = Fraction unbound in mouse plasma at 1 uM after 5 hrs by rapid equilibrium dialysis based LC-MS/MS analysis; assay type: ADME, cell-free
[27] = Half life in cynomolgus monkey plasma at 0.5 mg/kg, iv by LC/MS/MS analysis; assay type: ADME, organism-based, Macaca fascicularis
[28] = AUC (0 to infinity) in cynomolgus monkey plasma at […] administered via oral gavage measured 24 hrs post dose by LC/MS/MS analysis; assay type: ADME, organism-based, Macaca fascicularis; parameters: dose 2.5 mg/kg, route oral, time infinity
[29] = Half life in human hepatocytes at 1 uM by LC/MS analysis; assay type: ADME, cell-based, Hepatocyte
[30] = Oral bioavailability in CD-1 mouse plasma at 5 mg/kg measured 24 hrs post dose by LC/MS/MS analysis; assay type: ADME, organism-based
[31] = Clearance in Sprague-Dawley rat plasma at 1 mg/kg, iv measured 24 hrs post dose by LC/MS/MS analysis; assay type: ADME, organism-based
[32] = Cmax in cynomolgus monkey plasma at […] administered via oral gavage measured 24 hrs post dose by LC/MS/MS analysis; assay type: ADME, organism-based, Macaca fascicularis; parameters: dose 2.5 mg/kg, route oral

Chain of Voltage-gated inwardly rectifying potassium channel KCNH2 (Q12809 whole entry): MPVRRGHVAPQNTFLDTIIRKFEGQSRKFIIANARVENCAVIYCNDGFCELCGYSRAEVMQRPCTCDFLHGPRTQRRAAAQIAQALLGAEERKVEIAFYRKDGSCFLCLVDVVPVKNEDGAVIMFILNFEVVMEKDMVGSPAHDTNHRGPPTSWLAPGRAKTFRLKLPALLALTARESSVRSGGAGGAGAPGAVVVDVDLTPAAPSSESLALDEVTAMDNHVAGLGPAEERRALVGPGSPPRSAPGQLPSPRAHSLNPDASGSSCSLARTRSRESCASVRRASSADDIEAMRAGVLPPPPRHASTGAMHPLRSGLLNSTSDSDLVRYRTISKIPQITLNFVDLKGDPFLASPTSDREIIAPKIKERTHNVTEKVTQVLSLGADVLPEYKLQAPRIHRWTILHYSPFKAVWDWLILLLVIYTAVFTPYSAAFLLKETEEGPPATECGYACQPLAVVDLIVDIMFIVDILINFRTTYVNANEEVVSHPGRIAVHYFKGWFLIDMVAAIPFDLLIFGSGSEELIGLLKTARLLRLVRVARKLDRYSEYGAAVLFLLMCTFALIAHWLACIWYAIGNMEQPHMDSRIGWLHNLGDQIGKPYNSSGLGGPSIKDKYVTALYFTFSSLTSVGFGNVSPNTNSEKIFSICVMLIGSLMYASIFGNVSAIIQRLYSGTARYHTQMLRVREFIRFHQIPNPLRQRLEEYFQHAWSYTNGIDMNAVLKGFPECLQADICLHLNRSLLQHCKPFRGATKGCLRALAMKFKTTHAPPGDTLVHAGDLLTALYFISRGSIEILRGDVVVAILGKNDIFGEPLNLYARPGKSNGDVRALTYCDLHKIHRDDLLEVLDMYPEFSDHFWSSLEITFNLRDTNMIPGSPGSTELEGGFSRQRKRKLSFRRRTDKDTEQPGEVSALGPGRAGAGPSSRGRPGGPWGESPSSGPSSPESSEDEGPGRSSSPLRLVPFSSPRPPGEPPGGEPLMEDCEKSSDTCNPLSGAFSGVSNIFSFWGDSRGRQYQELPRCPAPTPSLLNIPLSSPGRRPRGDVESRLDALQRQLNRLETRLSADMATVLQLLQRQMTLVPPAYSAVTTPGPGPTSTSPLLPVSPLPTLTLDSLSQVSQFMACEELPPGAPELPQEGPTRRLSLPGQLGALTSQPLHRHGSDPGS
Chain of Cytochrome P450 3A4 (P08684 whole entry): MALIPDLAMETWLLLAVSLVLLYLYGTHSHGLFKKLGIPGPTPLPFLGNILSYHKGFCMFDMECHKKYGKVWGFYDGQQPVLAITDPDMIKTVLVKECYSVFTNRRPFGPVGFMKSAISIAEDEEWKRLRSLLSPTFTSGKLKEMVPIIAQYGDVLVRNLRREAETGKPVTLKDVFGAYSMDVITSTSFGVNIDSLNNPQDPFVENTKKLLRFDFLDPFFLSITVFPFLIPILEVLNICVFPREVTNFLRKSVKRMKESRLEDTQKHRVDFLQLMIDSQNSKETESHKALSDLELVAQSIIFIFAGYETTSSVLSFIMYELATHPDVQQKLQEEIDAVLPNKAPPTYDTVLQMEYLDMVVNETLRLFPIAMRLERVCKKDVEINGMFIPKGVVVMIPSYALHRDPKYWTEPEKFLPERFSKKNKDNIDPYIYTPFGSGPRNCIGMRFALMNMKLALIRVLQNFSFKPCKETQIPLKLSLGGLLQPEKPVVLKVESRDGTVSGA
Chain of Cytochrome P450 2D6 (P10635 whole entry): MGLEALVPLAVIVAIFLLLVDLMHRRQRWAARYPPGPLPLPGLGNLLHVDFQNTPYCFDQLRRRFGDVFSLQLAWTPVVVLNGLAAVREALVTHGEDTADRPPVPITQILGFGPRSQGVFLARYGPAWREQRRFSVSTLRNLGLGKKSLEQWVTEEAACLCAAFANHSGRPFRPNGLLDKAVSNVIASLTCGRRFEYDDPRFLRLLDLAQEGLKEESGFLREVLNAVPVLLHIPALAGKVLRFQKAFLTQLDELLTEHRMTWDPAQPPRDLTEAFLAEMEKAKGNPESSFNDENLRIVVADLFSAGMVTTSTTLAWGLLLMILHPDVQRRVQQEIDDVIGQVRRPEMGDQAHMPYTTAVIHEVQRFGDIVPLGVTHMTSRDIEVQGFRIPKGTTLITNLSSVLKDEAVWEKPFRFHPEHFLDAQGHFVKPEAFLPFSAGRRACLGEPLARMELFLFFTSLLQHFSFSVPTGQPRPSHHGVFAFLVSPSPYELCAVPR
Chain of Cytochrome P450 2C9 (P11712 whole entry): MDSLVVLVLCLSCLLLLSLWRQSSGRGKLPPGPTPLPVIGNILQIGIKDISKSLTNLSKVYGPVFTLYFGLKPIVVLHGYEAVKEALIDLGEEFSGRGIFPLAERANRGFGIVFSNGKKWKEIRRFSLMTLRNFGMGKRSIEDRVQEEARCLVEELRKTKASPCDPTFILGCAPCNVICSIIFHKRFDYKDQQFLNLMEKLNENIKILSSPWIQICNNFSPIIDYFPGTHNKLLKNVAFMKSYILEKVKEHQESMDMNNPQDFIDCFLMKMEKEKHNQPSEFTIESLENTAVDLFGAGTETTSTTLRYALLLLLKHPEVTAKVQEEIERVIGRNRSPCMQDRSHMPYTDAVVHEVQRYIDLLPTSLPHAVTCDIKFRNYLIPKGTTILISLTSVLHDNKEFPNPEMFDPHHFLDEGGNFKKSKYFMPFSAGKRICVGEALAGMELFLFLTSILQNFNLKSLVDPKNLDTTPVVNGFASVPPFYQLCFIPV
Chain of Cytochrome P450 2C19 (P33261 whole entry): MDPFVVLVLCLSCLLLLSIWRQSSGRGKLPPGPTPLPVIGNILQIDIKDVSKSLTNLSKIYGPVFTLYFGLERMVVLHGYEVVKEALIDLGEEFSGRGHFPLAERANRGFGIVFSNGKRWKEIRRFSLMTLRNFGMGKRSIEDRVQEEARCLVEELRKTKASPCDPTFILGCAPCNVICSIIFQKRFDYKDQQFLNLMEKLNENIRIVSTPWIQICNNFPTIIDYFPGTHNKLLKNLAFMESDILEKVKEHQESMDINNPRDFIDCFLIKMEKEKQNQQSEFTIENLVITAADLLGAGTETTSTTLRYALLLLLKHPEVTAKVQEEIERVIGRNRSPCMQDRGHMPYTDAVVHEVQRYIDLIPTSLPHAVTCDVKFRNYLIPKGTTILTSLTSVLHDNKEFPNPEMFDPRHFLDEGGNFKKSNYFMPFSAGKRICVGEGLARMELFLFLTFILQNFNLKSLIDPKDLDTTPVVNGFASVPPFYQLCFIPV

Question: Which IC50 [1] does the source give for C[C@H](NC(=O)c1c(N)nn2cccnc12)c1cc2cccc(C#Cc3cnn(C)c3)c2c(=O)n1-c1ccccc1 [EGANELISIB] here?
Answer: Its IC50 is over 20 µM.

Question: And the IC50 [2]?
Answer: Its IC50 is over 20 µM.

Question: What about the clearance [3] of the same molecule?
Answer: Its clearance is 2.8 mL/min/kg.

Question: And the fraction unbound at 5 h, 1 µM [4]?
Answer: The fraction unbound at 5 h, 1 µM was 0.011.

Question: And the AUC(0-inf) [5]?
Answer: The AUC(0-inf) was 20600 ng·h/mL.

Question: And the bioavailability at 24 h [6]?
Answer: The bioavailability at 24 h was 65%.

Question: And the bioavailability [7]?
Answer: Its bioavailability is 57%.

Question: And the Activity [8]?
Answer: Its Activity is “Non-Toxic”.

Question: What about the half-life at 1 µM [9] of the same molecule?
Answer: Its half-life at 1 µM is over 6 h.

Question: What about the AUC(0-inf) [10] of the same molecule?
Answer: The AUC(0-inf) was 8050 ng·h/mL.

Question: And the fraction unbound at 5 h, 1 µM [11]?
Answer: The fraction unbound at 5 h, 1 µM was 0.028.

Question: What about the half-life [12] of the same molecule?
Answer: The half-life was 6.7 h.

Question: What about the IC50 [13] of the same molecule?
Answer: The IC50 was over 10 µM.

Question: And the IC50 [14]?
Answer: The IC50 was over 20 µM.

Question: What about the clearance [15] of the same molecule?
Answer: The clearance was 3.6 mL/min/kg.

Question: And the IC50 [16]?
Answer: Its IC50 is over 20 µM.

Question: And the half-life [17]?
Answer: Its half-life is 3.2 h.

Question: What about the bioavailability at 24 h [18] of the same molecule?
Answer: Its bioavailability at 24 h is 31%.

Question: What about the IC50 [19] of the same molecule?
Answer: The IC50 was over 20 µM.

Question: And the half-life [20]?
Answer: Its half-life is 4.4 h.

Question: What about the Papp A→B at 10 µM [21] of the same molecule?
Answer: Its Papp A→B at 10 µM is 13 ×10⁻⁶ cm/s.

Question: What about the fraction unbound at 5 h, 1 µM [22] of the same molecule?
Answer: Its fraction unbound at 5 h, 1 µM is 0.028.

Question: And the Vd [23]?
Answer: The Vd was 1.2 L/kg.

Question: And the Vd [24]?
Answer: The Vd was 1.3 L/kg.

Question: What about the IC50 [25] of the same molecule?
Answer: The IC50 was over 20 µM.

Question: What about the fraction unbound at 5 h, 1 µM [26] of the same molecule?
Answer: Its fraction unbound at 5 h, 1 µM is 0.022.

Question: And the half-life [27]?
Answer: Its half-life is 4.3 h.

Question: And the AUC(0-inf) at 24 h [28]?
Answer: Its AUC(0-inf) at 24 h is 4030 ng·h/mL.

Question: And the half-life at 1 µM [29]?
Answer: Its half-life at 1 µM is over 6 h.

Question: And the bioavailability [30]?
Answer: The bioavailability was 88%.

Question: And the clearance [31]?
Answer: Its clearance is 4.4 mL/min/kg.

Question: And the Cmax at 24 h [32]?
Answer: Its Cmax at 24 h is 560 nM.
